Consider 4 molecules from article PMC3316155 (2012).

Each structure is given as a SMILES string.

What is called Km is the substrate concentration at which the rate is half of its maximum. For orientation: Ki means the equilibrium dissociation constant of an inhibitor or competing ligand from its target.

What all share (assay type): biochemical
The target of assay [1] is T1, PARP-1 [poly(ADP-ribose) polymerase 1] (Homo sapiens, UniProt P09874). Put plainly: […]NAD+ automodification assay, single concentration of […].
T1 sequence (P09874 2-1014): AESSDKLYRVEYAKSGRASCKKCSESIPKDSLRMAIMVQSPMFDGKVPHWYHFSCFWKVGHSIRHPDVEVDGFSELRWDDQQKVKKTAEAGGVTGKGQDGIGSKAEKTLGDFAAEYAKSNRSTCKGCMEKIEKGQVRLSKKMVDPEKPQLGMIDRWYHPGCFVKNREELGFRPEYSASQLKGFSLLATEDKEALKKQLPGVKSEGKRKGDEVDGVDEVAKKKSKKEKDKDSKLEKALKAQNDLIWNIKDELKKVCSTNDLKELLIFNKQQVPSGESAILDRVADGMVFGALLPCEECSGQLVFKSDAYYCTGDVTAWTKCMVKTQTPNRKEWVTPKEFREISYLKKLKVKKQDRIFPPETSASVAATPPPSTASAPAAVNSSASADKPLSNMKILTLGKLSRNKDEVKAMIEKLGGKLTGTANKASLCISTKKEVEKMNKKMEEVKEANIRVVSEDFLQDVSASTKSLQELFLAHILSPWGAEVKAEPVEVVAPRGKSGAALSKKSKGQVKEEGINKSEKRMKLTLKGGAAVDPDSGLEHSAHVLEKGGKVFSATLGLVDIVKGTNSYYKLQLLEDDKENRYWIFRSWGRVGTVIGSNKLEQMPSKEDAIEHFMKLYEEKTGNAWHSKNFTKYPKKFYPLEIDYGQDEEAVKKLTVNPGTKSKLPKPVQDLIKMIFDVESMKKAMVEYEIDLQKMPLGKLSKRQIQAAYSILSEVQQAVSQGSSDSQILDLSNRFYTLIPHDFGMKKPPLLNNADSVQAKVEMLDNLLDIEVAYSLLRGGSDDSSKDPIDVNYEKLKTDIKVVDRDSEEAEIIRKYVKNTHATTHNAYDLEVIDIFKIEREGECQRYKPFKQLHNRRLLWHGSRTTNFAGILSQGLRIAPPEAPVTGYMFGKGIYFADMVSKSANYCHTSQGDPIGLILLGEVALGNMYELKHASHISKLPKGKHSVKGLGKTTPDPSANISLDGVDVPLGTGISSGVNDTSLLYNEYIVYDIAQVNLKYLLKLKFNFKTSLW
In assay [2] the target is T1, PARP-1 [poly(ADP-ribose) polymerase 1]. Nature of the assay: […]NAD+ automodification assay, % inhibition at […]. The settings on record: read-out: % reduction at 1 mM.
Assay [3] shares this target. Nature of the assay: Michaelis–Menten kinetics of ADP-ribose incorporation.
Assay [4] has the same target. Nature of the assay: […]NAD+ automodification assay with purified PARP-1.

Regarding `Nc1ncnc2c1ncn2[C@@H]1O[C@H](COP(=O)(O)OP(=O)(O)OC[C@H]2OC(O)[C@H](O)[C@@H]2O)[C@@H](O)[C@H]1O` (stereo partly shown) [ADP-ribose], the “[32P]NAD+ automodification assay, single concentration of 50 μM” value in assay [1] is reported as “With the exception of ADP-ribose, other adenine derivatives only inhibited PARP-1 to a limited extent”.
For `Nc1ncnc2c1ncn2[C@@H]1O[C@H](COP(=O)(O)OP(=O)(O)OP(=O)(O)O)[C@@H](O)[C@H]1O` [ATP], the inhibition at 1000 µM in assay [2] is approximately 25%.
As for `NC(=O)c1ccc[n+]([C@@H]2O[C@H](COP(=O)([O-])OP(=O)(O)OC[C@H]3O[C@@H](n4cnc5c(N)ncnc54)[C@H](O)[C@@H]3O)[C@@H](O)[C@H]2O)c1` [NAD^+], the Km in assay [3] lay in the range of 200 to 250 µM.
Regarding `Nc1ncnc2c1ncn2[C@@H]1O[C@H](COP(=O)(O)O)[C@@H](OP(=O)(O)O)[C@H]1O` [pAp], the Ki in assay [4] is 500 to 1000 nM.
